# Read-outs that look alike come from different tables or passages of the source.
# Legend:
# Format in all cases: cell-based
# HBV DNA in HepAD38 cells = test: In vitro cell HBV DNA inhibitory activity (anti-HBV activity) in HepAD38 cells; conditions: Hepatitis B virus
# Procedure: (§1) A bottle of HepG2.2.15 or HepAD38 cells in good exponential growth state was taken, washed once by adding 5 mL PBS, and then thereto was added 3 mL trypsin. After digesting at room temperature for 5 min, 2 mL trypsin was discarded, and then the sample was placed in a cell culture incubator and digested for 10 min. The cells were taken out from time to time and observed under a microscope (whether the cells were individually round and there was no adhesion between the cells). 10 mL complete medium was added to terminate the digestion. After pipetting into a single cell suspension, 10 μL of the cell suspension was taken out for cell counting with a cell counter, and then diluted with a complete medium and adjusted to a cell density of 1*10^5 cells/mL. Then the cell suspension was seeded at 1 mL/well in a 24-well plate with a multi-channel pipette (the 24-well plate was coated with 50 μg/mL Collagen I solution in advance), and cultured in a constant temperature CO2 incubator for 48 h.
# (§2) Different compounds dissolved in DMSO were subjected to two-fold gradient dilution (10 concentrations in total) with complete medium. The compound was added, and fresh medium containing the compound was used to replace the spent medium every 72 hours. The cells were treated with the compound for 6 days. After the supernatant was siphoned off, 300 μL lysate (10 mM Tris-HCl, 1 mM EDTA, and 1% NP-40) was added to each well. After lysing at room temperature for 10 min, DNA was extracted, and HBV DNA in the intracellular viral capsid was measured by real-time fluorescence quantitative PCR. The inhibition rate was calculated based on the Ct value, and the EC50 value was calculated by the four-parameter method.
# [1] = tested on: HBV DNA in HepG2.2.15 cells; test: In vitro cell HBV DNA inhibitory activity (anti-HBV activity) in HepG2.2.15 cells; conditions: Hepatitis B virus
# Procedure: as §1, §2
# [2] = In vitro cytotoxicity (CCK-8) in HepAD38 cells; conditions: human
# Procedure: (§3) A bottle of HepG2.2.15 or HepAD38 cells in good exponential growth state was taken, washed once by adding 5 mL PBS, and then thereto was added 3 mL trypsin. The sample was digested in a cell culture incubator, and taken out from time to time and observed under a microscope. When the cells just fell off, 1 mL trypsin was discarded. The residual liquid was placed in a cell culture incubator at 37° C. and digested for 8-15 min. The cells were taken out and observed under a microscope (whether the cells were individually round and there was no adhesion between the cells). 5 mL MEM medium was added for cell resuspension. The cells were then subjected to cell counting with a cell counter, diluted with a complete medium, and adjusted to a cell density of 2*10^5 cells/mL. Then the cells were seeded at 100 μL/well in a 96-well plate with a multi-channel pipette (the 96-well plate was coated with 50 μg/mL Collagen I solution in advance), and cultured in a constant temperature CO2 incubator for 24 h. The cells were treated by drug administration, and fresh medium containing the compound was used to replace the spent medium every 3 days. To control wells was added a drug-free medium containing 0.5% DMSO, and a control well containing a common medium was set up. 6 days after the administration, CCK-8 was added at 10 μL/well. After 1 to 2 hours, the absorbance was detected with microplate reader at 450 nm, and the inhibition rate and the CC50 were calculated.
# [3] = In vitro cytotoxicity (CCK-8) in HepG2.2.15 cells; conditions: human
# Procedure: as §3
# [4] = 144 h, anti-HBV activity in HepAD38 cells, 6 days treatment, intracellular capsid HBV DNA by qPCR, read-out: EC50
# [5] = 144 h, anti-HBV activity in HepG2.2.15 cells, 6 days treatment, intracellular capsid HBV DNA by qPCR, read-out: EC50
Structure (SMILES),EC50 (HBV DNA in HepAD38 cells; [4]) [µM],"EC50 [1, 5] [µM]",other results
"Cc1c(C(=O)Nc2ccc(F)c(C#N)c2)c(C)n(C)c1C(=O)C(=O)N[C@H]1C[C@H](O)C1 [Example 3, N-(3-cyano-4-fluorophenyl)-5-(2-((trans-3-hydroxycyclobutyl)amino)-2-oxoacetyl)-1,2,4-trimethyl-1H-pyrrole-3-carboxamide]",0.05 to 0.1,–,–
"Cc1c(C(=O)Nc2ccc(F)c(C#N)c2)c(C)n(C)c1C(=O)C(=O)N[C@H]1C[C@@H](O)C1 [Example 4, N-(3-cyano-4-fluorophenyl)-5-(2-((cis-3-hydroxycyclobutyl)amino)-2-oxoacetyl)-1,2,4-trimethyl-1H-pyrrole-3-carboxamide]",0.01 to 0.05,–,–
"Cc1c(C(=O)Nc2ccc(F)c(C#N)c2)c(C)n(C)c1C(=O)C(=O)NC1COC1 [Example 5, N-(3-cyano-4-fluorophenyl)-1,2,4-trimethyl-5-(2-(oxetan-3-ylamino)-2-oxoacetyl)-1H-pyrrole-3-carboxamide]",0.01 to 0.05,–,–
"Cc1c(C(=O)Nc2ccc(F)c(C#N)c2)c(C)n(C)c1C(=O)C(=O)N[C@H]1C[C@@H](CO)C1 [Example 10, N-(3-cyano-4-fluorophenyl)-5-(2-((cis-3-(hydroxymethyl)cyclobutyl)amino)-2-oxoacetyl)-1,2,4-trimethyl-1H-pyrrole-3-carboxamide]",0.01 to 0.05,–,–
"Cc1c(C(=O)Nc2ccc(F)c(C#N)c2)cn(C)c1C(=O)C(=O)NC(C)(C)C [Example 14, 5-(2-(tert-butylamino)-2-oxoacetyl)-N-(3-cyano-4-fluorophenyl)-1,4-dimethyl-1H-pyrrole-3-carboxamide]",0.01 to 0.05,–,–
"Cc1c(C(=O)Nc2ccc(F)c(C#N)c2)cc(C(=O)C(=O)NC(C)(C)C)n1C [Example 16, 5-(2-(tert-butylamino)-2-oxoacetyl)-N-(3-cyano-4-fluorophenyl)-1,2-dimethyl-1H-pyrrole-3-carboxamide]",–,< 0.01,CC50 at 6 days [2]: > 100 µM
"Cn1c(Br)c(C(=O)Nc2ccc(F)c(C#N)c2)c(Br)c1C(=O)C(=O)NC(C)(C)C [Example 20, 2,4-dibromo-5-(2-(tert-butylamino)-2-oxoacetyl)-N-(3-cyano-4-fluorophenyl)-1-methyl-1H-pyrrole-3-carboxamide]",0.01 to 0.05,0.05 to 0.1,–
Cc1c(C(=O)Nc2ccc(F)c(C#N)c2)c(C)n(C)c1C(=O)C(=O)N[C@@H]1CCOC1 [Example 21],0.01 to 0.05,0.05 to 0.1,CC50 at 6 days [3]: > 100 µM; CC50 at 6 days [2]: > 100 µM
Cc1c(C(=O)Nc2ccc(F)c(C#N)c2)c(C)n(C)c1C(=O)C(=O)N[C@H]1CCOC1 [Example 22],0.01 to 0.05,0.01 to 0.05,CC50 at 6 days [3]: > 100 µM; CC50 at 6 days [2]: > 100 µM
Cc1c(C(=O)Nc2ccc(F)c(C#N)c2)c(C)n(C)c1C(=O)C(=O)NC1(C)CCOC1 (stereo not drawn) [Example 23],< 0.01,< 0.01,CC50 at 6 days [3]: > 100 µM; CC50 at 6 days [2]: > 100 µM
"Cc1c(C(=O)Nc2ccc(F)c(C#N)c2)c(C)n(C)c1C(=O)C(=O)NC1(C)CCOCC1 [Example 24, N-(3-cyano-4-fluorophenyl)-1,2,4-trimethyl-5-(2-((4-methyltetrahydro-2H-pyran-4-yl)amino)-2-oxoacetyl)-1H-pyrrole-3-carboxamide]",< 0.01,< 0.01,CC50 at 6 days [3]: > 100 µM; CC50 at 6 days [2]: > 100 µM
Cc1c(C(=O)Nc2ccc(F)c(C#N)c2)c(C)n(C)c1C(=O)C(=O)NC1(CO)COC1 [Example 26],0.05 to 0.1,0.05 to 0.1,CC50 at 6 days [3]: > 100 µM; CC50 at 6 days [2]: > 100 µM
CNC(=O)C1(NC(=O)C(=O)c2c(C)c(C(=O)Nc3ccc(F)c(C#N)c3)c(C)n2C)CC(F)(F)C1 [Example 28],–,–,"EC50 (HBV DNA in HepAD38 cells; HePAD38, 144 h): 0.01 to 0.05 µM"
Cc1c(C(=O)Nc2ccc(F)c(C#N)c2)c(Cl)n(C)c1C(=O)C(=O)NC1(C)CCOCC1 [Example 31],< 0.01,–,–
Cc1c(C(=O)Nc2ccc(F)c(C#N)c2)c(Cl)n(C)c1C(=O)C(=O)NC1(C(F)(F)F)COC1 [Example 32],< 0.01,–,–
"Cc1c(C(=O)Nc2ccc(F)c(C#N)c2)c(Cl)n(C)c1C(=O)C(=O)NC1(C)COC1 [Example 34, 2-chloro-N-(3-cyano-4-fluorophenyl)-1,4-dimethyl-5-(2-((3-methyloxetan-3-yl)amino)-2-oxoacetyl)-1H-pyrrole-3-carboxamide]",0.01 to 0.05,–,–
"Cc1c(C(=O)Nc2ccc(F)c(Cl)c2)c(Cl)n(C)c1C(=O)C(=O)N[C@@H](C)C(F)(F)F [Example 35, (S)-2-chloro-N-(3-chloro-4-fluorophenyl)-1,4-dimethyl-5-(2-oxo-2-((1,1,1-trifluoroprop-2-yl)amino)acetyl)-1H-pyrrole-3-carboxamide]",< 0.01,–,–
"Cc1c(C(=O)Nc2ccc(F)c(Cl)c2)c(C)n(C)c1C(=O)C(=O)NC1(C)CCOCC1 [Example 36, N-(3-chloro-4-fluorophenyl)-1,2,4-trimethyl-5-(2-((4-methyltetrahydro-2H-pyran-4-yl)amino)-2-oxoacetyl)-1H-pyrrole-3-carboxamide]",< 0.01,–,–
"Cc1c(C(=O)Nc2ccc(F)c(Cl)c2)c(C)n(C)c1C(=O)C(=O)N[C@@H](C)C(F)(F)F [Example 37, (S)—N-(3-chloro-4-fluorophenyl)-1,2,4-trimethyl-5-(2-oxo-2-((1,1,1-trifluoroprop-2-yl)amino)acetyl)-1H-pyrrole-3-carboxamide]",< 0.01,–,–
"Cc1c(C(=O)Nc2ccc(F)c(F)c2)c(C)n(C)c1C(=O)C(=O)N[C@@H](C)C(F)(F)F [Example 38, (S)—N-(3,4-difluorophenyl)-1,2,4-trimethyl-5-(2-oxo-2-((1,1,1-trifluoroprop-2-yl)amino)acetyl)-1H-pyrrole-3-carboxamide]",< 0.01,< 0.01,–
Cc1c(C(=O)Nc2ccc(F)cc2)c(C)n(C)c1C(=O)C(=O)N[C@@H](C)C(F)(F)F [Example 39],< 0.01,< 0.01,CC50 at 6 days [3]: > 100 µM
"Cc1c(C(=O)Nc2ccc(F)c(C#N)c2)c(C)n(C)c1C(=O)C(=O)NC1(C)CC(O)C1 (stereo not drawn) [Example 46, N-(3-cyano-4-fluorophenyl)-5-(2-((3-hydroxy-1-methylcyclobutyl)amino)-2-oxoacetyl)-1,2,4-trimethyl-1H-pyrrole-3-carboxamide]",0.01 to 0.05,< 0.01,–
"Cc1c(C(=O)Nc2cc(F)c(F)c(F)c2)c(C)n(C)c1C(=O)C(=O)NC1(C)COC1 [Example 47, 1,2,4-trimethyl-5-(2-((3-methyloxetan-3-yl)amino)-2-oxoacetyl)-N-(3,4,5-trifluorophenyl)-1H-pyrrole-3-carboxamide]",< 0.01,< 0.01,–
"Cn1cc(C(=O)Nc2ccc(F)c(C#N)c2)cc1C(=O)C(=O)NC1(C(F)(F)F)COC1 [Example 50, N-(3-cyano-4-fluorophenyl)-1-methyl-5-(2-oxo-2-((3-(trifluoromethyl)oxetan-3-yl)amino)acetyl)-1H-pyrrole-3-carboxamide]",0.05 to 0.1,–,–
"Cc1c(C(=O)Nc2ccc(F)c(C#N)c2)c(F)c(C(=O)C(=O)N[C@@H](C)C(F)(F)F)n1C [Example 54, (S)—N-(3-cyano-4-fluorophenyl)-4-fluoro-1,2-dimethyl-5-(2-oxo-2-((1,1,1-trifluoroprop-2-yl)amino)acetyl)-1H-pyrrole-3-carboxamide]",–,–,"EC50 ([1]; HepG2.2.15, 144 h): < 0.01 µM; EC50 (HBV DNA in HepAD38 cells; HePAD38, 144 h): 0.01 to 0.05 µM"
"Cc1c(C(=O)Nc2ccc(F)c(C#N)c2)c(Cl)n(C)c1C(=O)C(=O)NC1(C)CC(O)C1 (stereo not drawn) [Example 55, 2-chloro-N-(3-cyano-4-fluorophenyl)-5-(2-((3-hydroxy-1-methylcyclobutyl)amino)-2-oxoacetyl)-1,4-dimethyl-1H-pyrrole-3-carboxamide]",–,–,"EC50 ([1]; HepG2.2.15, 144 h): 0.01 to 0.05 µM; EC50 (HBV DNA in HepAD38 cells; HePAD38, 144 h): 0.01 to 0.05 µM"
"[2H]C([2H])([2H])n1c(C)c(C(=O)Nc2ccc(F)c(C#N)c2)c(C)c1C(=O)C(=O)N[C@@H](C)C(F)(F)F [Example 60, (S)—N-(3-cyano-4-fluorophenyl)-2,4-dimethyl-1-(methyl-d3)-5-(2-oxo-2-((1,1,1-trifluoroprop-2-yl)amino)acetyl)-1H-pyrrole-3-carboxamide]",< 0.01,–,–

# — patent US12116356B2, “N-heterocyclic five-membered ring-containing capsid protein assembly inhibitor, pharmaceutical composition thereof, and use thereof” (CHIA TAI TIANQING PHARMACEUTICAL GROUP CO., LTD., priority 2018, dated 2024)
